# Experiments:
# [1] = Determination of water proton T1 relaxation time (inversion recovery NMR, 270 MHz); type: physicochemical; settings: deoxygenated, Example 1 complex at 680 µMolar in 20% D₂O (vol/vol)
# Protocol: The complex from Example 1 was deoxygenated by bubbling dry nitrogen gas through it for 20 min. The sample was then placed in a 5 mm NMR tube and placed in a 270 MHz spectrometer for determination of the water proton relaxation time.
# The NMR experiment used to measure the relaxation time was the standard inversion recovery technique for measuring spin-lattice (T₁) relaxation times. In this technique the intensity of the water proton NMR resonance is measured as a function of a variable delay time between radiofrequency pulses during which the spin system relaxes toward equilibrium. The final data, which consisted of peak intensities versus delay time, was plotted and fitted to an exponential function. The characteristic time for spin magnetization to reestablish itself (T₁) is obtained from the time constant of the fitted exponential function. The value for T₁ for the complex of Example 1 was 244 mS. This compares favorably to a value of 422 mS for a Gd-DTPA, and 540 mS for Gd-DOTA when the experiment was repeated using these complexes. (The Gd-DTPA and Gd-DOTA are known commercial MRI agents.)
# [2] = Quantitative biodistribution of 159Gd tracer formulation in rat (NaI scintillation counting of tissues); type: in vivo, Sprague Dawley rat; settings: 100 µL via tail vein, 2 hours after injection, ligand to metal molar ratio 1.5, 0.32 mg/mL
# From the text: Quantitative biodistributions were obtained by injecting 50-100 microliters of the composition into the rail vein of unanesthetized male Sprague Dawley rats. The rats were then placed in cages lined with absorbent paper in order to collect all urine excreted prior to sacrifice. After a given period of time, the rats were sacrificed by cervical dislocation and the various tissues dissected. The samples were then rinsed with saline, blotted dry on absorbent paper and weighed. The radioactivity in the samples was measured with a NaI scintillation counter.
# A 1.45 mg sample of DOTMP, prepared by the procedure of Example B, was placed in a vial and dissolved in 760 µL of water and 5 µL of 50% (wt/wt) of NaOH. A volume of 1000 µL of Gd solution (0.3 mM Gd in O.1N HCl), which contained tracer quantities of ¹⁵⁹Gd, was placed in a separate vial and 15 µL of the DOTMP solution was added. The pH of the solution was adjusted to 7 to 8 using NaOH. The amount of Gd as a complex was determined to be > 99% by cation exchange chromatography. This formulation has a ligand to metal molar ratio of 1.5.
# A Sprague Dawley rat was injected with the above prepared formulation and the biodistribution determined. The rat was allowed to acclimate for five days then injected with 100 µL of the Gd solution described above via a tail vein. The rat weighed between 150 and 200 g at the time of injection. After 2 hours the rat was killed by cervical dislocation. Tissues were taken, weighed and the amount of radioactivity in each tissue was determined by counting in a NaI scintillation counter coupled to a multichannel analyzer. The counts in each tissue were compared to the counts in 100 µL standards in order to determine the percentage of the injected dose in each tissue or organ. The ligand (DOTMP) to metal (Gd) molar ratio = 1.5.
# [3] = Biodistribution of Gd-DOTMP complex in a rat: Gd in femur by inductively coupled plasma spectroscopy; type: in vivo, Sprague Dawley rat
# Protocol: A 150 g Sprague Dawley rat was injected with 6-100 µL portions of the Gd-DOTMP, prepared in Example 4, over a 4 day period. This rat was then sacrificed and one of its femur bones was removed and found to weigh 0.690 g. This bone was dissolved in 5 mL of concentrated HCl and analyzed for Gd by inductively coupled plasma spectroscopy. The amount of Gd found in the femur bone was 16.76 µg, which corresponds to 419 µg in the total rat skeleton, assuming the femur is 1/25th of the total skeleton. This corresponds to 25.5% of the injected dose going to the bone. That result compares favorably with similar work done with radioactive tracer ¹⁵³Sm where at these high levels of injected doses about 25-30% of the injected dose localizes in the bone. Thus the behavior of Sm-DOTMP and Gd-DOTMP are very similar in vivo.
molecule,measurement,setting,value
O=C([O-])CN1CCN(CC(=O)[O-])CCN(CC(=O)O)CCN(CC(=O)[O-])CC1.[Gd+3] [Gd-DOTA],T₁ (spin-lattice relaxation time of water protons),[1],540 mS
O=C([O-])CN(CCN(CC(=O)[O-])CC(=O)O)CCN(CC(=O)[O-])CC(=O)O.[Gd+3] [Gd-DTPA],T₁ (spin-lattice relaxation time of water protons),[1],422 mS
¹⁵⁹Gd-DOTMP [Ho-DOTMP],% OF INJECTED DOSE (159Gd) in Blood,[2],0.08%
same,% OF INJECTED DOSE (159Gd) in Bone,[2],50%
same,% OF INJECTED DOSE (159Gd) in Kidney,[2],0.25%
same,% OF INJECTED DOSE (159Gd) in Liver,[2],0.08%
Gd-DOTMP [Example 1],T₁ (spin-lattice relaxation time of water protons),[1],244 mS
same,amount of Gd found in the femur bone,"[3]; 150 g rat, 6-100 µL portions over a 4 day period, femur 0.690 g, ICP",16.76 µg
same,% of the injected dose going to the bone,"[3]; 150 g rat, 6-100 µL portions over a 4 day period, from femur Gd",25.5%
same,Gd in the total rat skeleton,[3]; assuming the femur is 1/25th of the total skeleton,419 µg

# Reference: EP0468634A1, “The use of macrocyclic aminophosphonic acid complexes as imaging agents” (THE DOW CHEMICAL COMPANY, priority 1990, dated 1992)
